Data published in ChEMBL document CHEMBL1152115, “Optically active fluorinated cyclobutane nucleoside analogs with potent anti-herpes activity” (1993).

How the values were obtained:
Human alphaherpesvirus 3 [1] = assay: Effective dose required to inhibit cell growth against VZV (Ellen); assay type: functional; conditions: read-out: ED50 (the source's name)
Human alphaherpesvirus 2 [2] = assay: Effective dose required to inhibit cell growth against HSV-2 (186); assay type: functional; conditions: read-out: ED50 (the source's name)
Human alphaherpesvirus 1 [3] = assay: Effective dose required to inhibit cell growth against HSV-1 (schooler); assay type: functional; conditions: read-out: ED50 (the source's name)
Human betaherpesvirus 5 [4] = assay: Effective dose required to inhibit cell growth against HCMV (AD169); assay type: functional; conditions: read-out: ED50 (the source's name)
Human alphaherpesvirus 3 [5] = assay: Effective dose required to inhibit cell growth against VZV (Ellen); Value ranges from 25-63; assay type: functional; conditions: read-out: ED50 (the source's name)
Human alphaherpesvirus 2 [6] = assay: Effective dose required to inhibit cell growth against HSV-2 (186); Value ranges from 88-176; assay type: functional; conditions: read-out: ED50 (the source's name)
Human alphaherpesvirus 3 [7] = assay: Effective dose required to inhibit cell growth against VZV (Ellen); Value ranges from 88-177; assay type: functional; conditions: read-out: ED50 (the source's name)
Human alphaherpesvirus 1 [8] = assay: Effective dose required to inhibit cell growth against HSV-1 (schooler); Value ranges from 0.7-1.8; assay type: functional; conditions: read-out: ED50 (the source's name)
Human betaherpesvirus 5 [9] = assay: Effective dose required to inhibit cell growth against HCMV (AD169); Value ranges from 3.5-35; assay type: functional; conditions: read-out: ED50 (the source's name)
Human alphaherpesvirus 3 [10] = assay: Effective dose required to inhibit cell growth against VZV (Ellen); Value ranges from 1.8-3.5; assay type: functional; conditions: read-out: ED50 (the source's name)
Human alphaherpesvirus 3 [11] = assay: Effective dose required to inhibit cell growth against VZV (Ellen); Value ranges from 0.7-1.7; assay type: functional; conditions: read-out: ED50 (the source's name)
Human alphaherpesvirus 1 [12] = assay: Effective dose required to inhibit cell growth against HSV-1 (schooler); Value ranges from 0.7-1.7; assay type: functional; conditions: read-out: ED50 (the source's name)
Human betaherpesvirus 5 [13] = assay: Effective dose required to inhibit cell growth against HCMV (AD169); Value ranges from 18-35; assay type: functional; conditions: read-out: ED50 (the source's name)
Human alphaherpesvirus 2 [14] = assay: Effective dose required to inhibit cell growth against HSV-2 (186); Value ranges from 0.3-0.7; assay type: functional; conditions: read-out: ED50 (the source's name)
Human alphaherpesvirus 1 [15] = assay: microbe, parasite or virus in culture; conditions: Human alphaherpesvirus 1, read-out: ED50
Human betaherpesvirus 5 [16] = assay: Effective dose required to inhibit cell growth against HCMV (AD169); Value ranges from 20-40; assay type: functional; conditions: read-out: ED50 (the source's name)
Human alphaherpesvirus 2 [17] = assay: microbe, parasite or virus in culture; conditions: Human alphaherpesvirus 2, read-out: ED50
Human alphaherpesvirus 3 [18] = assay: microbe, parasite or virus in culture; conditions: Human alphaherpesvirus 3, read-out: ED50

Which results are given for `Nc1ccn([C@@H]2C(F)C(CO)[C@@H]2CO)c(=O)n1` (stereo partly drawn)?
EC50 (Human alphaherpesvirus 3 [1]): > 411 µM; EC50 (Human alphaherpesvirus 2 [2]): ≥ 411 µM; EC50 (Human alphaherpesvirus 1 [3]): > 411 µM; EC50 (Human betaherpesvirus 5 [4]): > 411 µM

Which results are given for `O=c1[nH]c(=O)n([C@@H]2C(F)[C@H](CO)C2CO)cc1/C=C/I` (stereo partly drawn)?
EC50 (Human alphaherpesvirus 2 [2]): > 252 µM; EC50 (Human alphaherpesvirus 1 [3]): > 252 µM; EC50 (Human betaherpesvirus 5 [4]): > 252 µM; EC50 (Human alphaherpesvirus 3 [5]): 25 µM

With `Nc1nc(O)c2ncn([C@@H]3C(F)[C@H](CO)C3CO)c2n1` (stereo partly drawn) as the compound, how does the EC50 (Human alphaherpesvirus 2 [6]) read?
The EC50 was 88 µM.

And the EC50 (Human alphaherpesvirus 1 [3])?
The EC50 was 88 µM.

And the EC50 (Human betaherpesvirus 5 [4])?
Its EC50 is over 353 µM.

What about the EC50 (Human alphaherpesvirus 3 [7]) of the same compound?
The EC50 was 88 µM.

`O=c1[nH]c(=O)n([C@@H]2C(F)[C@H](CO)C2CO)cc1/C=C/Br` (stereo partly drawn) was tested. Which EC50 (Human alphaherpesvirus 3 [1]) did it give?
The EC50 was 286 µM.

What about the EC50 (Human alphaherpesvirus 2 [2]) of the same compound?
Its EC50 is over 286 µM.

And the EC50 (Human alphaherpesvirus 1 [3])?
Its EC50 is over 286 µM.

What about the EC50 (Human betaherpesvirus 5 [4]) of the same compound?
Its EC50 is over 286 µM.

Which results are given for `Nc1nc(O)c2ncn([C@@H]3C(F)[C@H](CO)C3CO)c2n1` (mixture of isomers)?
EC50 (Human alphaherpesvirus 1 [8]): 0.7 µM; EC50 (Human betaherpesvirus 5 [9]): 3.5 µM; EC50 (Human alphaherpesvirus 2 [2]): 0.7 µM; EC50 (Human alphaherpesvirus 3 [10]): 1.8 µM

`Nc1nc(O)c2ncn([C@@H]3C(F)[C@H](CO)C3CO)c2n1` (single isomer, unassigned; (-)) was tested. Which EC50 (Human alphaherpesvirus 3 [11]) did it give?
Its EC50 is 0.7 µM.

And the EC50 (Human alphaherpesvirus 1 [12])?
Its EC50 is 0.7 µM.

What about the EC50 (Human betaherpesvirus 5 [13]) of the same compound?
The EC50 was 18 µM.

What about the EC50 (Human alphaherpesvirus 2 [14]) of the same compound?
Its EC50 is 0.3 µM.

Which results are given for `Nc1nc2c(ncn2COCCO)c(=O)[nH]1` [ACYCLOVIR]?
EC50 (Human alphaherpesvirus 1 [15]): 0.2 µM; EC50 (Human betaherpesvirus 5 [16]): 20 µM; EC50 (Human alphaherpesvirus 2 [17]): 0.4 µM; EC50 (Human alphaherpesvirus 3 [18]): 2 µM
